Results from patent US20250197425A1, “2,6,9-TRISUBSTITUTED PURINES” (ASTRAZENECA AB, priority 2022, published 2025).
≈ marks a conversion by molar mass, not a printed value. Like-named read-outs stand apart in the source and are kept apart here.

Key:
[1] = target: CDK2:CCNE1 (Homo sapiens (Human), UniProt P24941); assay: NanoBRET assay in MCF-7 cells, CDK2; format: cell-based; conditions: transfected MCF-7 cells, 2 hours, n = 1 or average
Procedure, shortened: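 In live MCF-7 cells, compound added followed by NanoBRET TE Tracer K-9 (stock 200 μM) for CDK2, 2 h at 37° C, 5% CO2.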

[2] = target: CDK1:CCNB1 (Homo sapiens (Human), UniProt P06493); assay: NanoBRET assay in MCF-7 cells, CDK1; format: cell-based; conditions: NanoBRET, transfected MCF-7 cells, 2 hours; n = 1 or average; read-out: CDK1 IC50
CDK1:CCNB1, sequence (P06493 whole entry): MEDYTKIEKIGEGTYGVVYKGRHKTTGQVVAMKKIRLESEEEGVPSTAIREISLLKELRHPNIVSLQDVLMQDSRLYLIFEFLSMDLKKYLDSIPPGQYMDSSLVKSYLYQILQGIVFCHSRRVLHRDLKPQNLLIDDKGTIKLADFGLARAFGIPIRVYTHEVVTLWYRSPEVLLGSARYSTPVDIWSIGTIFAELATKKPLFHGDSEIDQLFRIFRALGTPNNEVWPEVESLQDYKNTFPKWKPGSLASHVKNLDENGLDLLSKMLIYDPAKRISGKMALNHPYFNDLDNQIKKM
CDK1:CCNB1, sequence (P14635 whole entry partner): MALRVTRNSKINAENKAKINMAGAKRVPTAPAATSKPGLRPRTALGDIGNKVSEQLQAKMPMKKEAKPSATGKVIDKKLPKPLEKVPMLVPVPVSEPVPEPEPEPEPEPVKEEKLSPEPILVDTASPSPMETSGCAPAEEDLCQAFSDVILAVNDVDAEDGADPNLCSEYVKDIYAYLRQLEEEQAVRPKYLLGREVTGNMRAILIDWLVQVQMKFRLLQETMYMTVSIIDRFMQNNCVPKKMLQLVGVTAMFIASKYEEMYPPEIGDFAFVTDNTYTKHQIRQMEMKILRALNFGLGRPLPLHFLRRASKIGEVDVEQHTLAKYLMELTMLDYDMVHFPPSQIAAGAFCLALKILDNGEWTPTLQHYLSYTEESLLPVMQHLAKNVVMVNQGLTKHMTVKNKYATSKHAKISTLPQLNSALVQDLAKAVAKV
Procedure, shortened: (§1)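 Transiently transfected MCF-7 cells expressing CDK1:CCNB1 or CDK4:CCND1 were treated with compound plus tracer (CDK1: Tracer K-9, 400 μM stock; CDK4: Tracer K-7, 100 μM stock) for 2 h at 37 °C.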

[3] = target: CDK4:CCND1 (Homo sapiens (Human), UniProt P11802); assay: NanoBRET assay in MCF-7 cells, CDK4; format: cell-based; conditions: NanoBRET, transfected MCF-7 cells, 2 hours; n = 1 or average; read-out: CDK4 IC50
CDK4:CCND1, sequence (P11802 whole entry): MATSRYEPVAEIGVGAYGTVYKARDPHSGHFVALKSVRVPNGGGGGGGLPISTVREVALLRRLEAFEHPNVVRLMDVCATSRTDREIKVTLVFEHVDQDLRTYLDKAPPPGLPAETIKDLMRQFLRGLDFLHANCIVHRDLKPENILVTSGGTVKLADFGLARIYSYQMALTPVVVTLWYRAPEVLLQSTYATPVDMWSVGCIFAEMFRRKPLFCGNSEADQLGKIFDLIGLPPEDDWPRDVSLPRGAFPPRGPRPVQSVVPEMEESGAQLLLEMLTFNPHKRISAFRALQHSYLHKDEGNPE
CDK4:CCND1, sequence (P24385 whole entry partner): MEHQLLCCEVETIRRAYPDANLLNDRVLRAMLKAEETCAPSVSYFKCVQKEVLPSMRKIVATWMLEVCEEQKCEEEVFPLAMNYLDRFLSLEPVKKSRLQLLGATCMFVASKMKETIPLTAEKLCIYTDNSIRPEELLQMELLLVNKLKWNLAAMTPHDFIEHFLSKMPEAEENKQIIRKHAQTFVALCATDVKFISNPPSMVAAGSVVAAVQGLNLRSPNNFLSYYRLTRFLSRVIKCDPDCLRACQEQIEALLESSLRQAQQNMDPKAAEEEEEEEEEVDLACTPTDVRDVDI
Procedure, shortened: as §1

[4] = test system: NPM phosphorylation (Thr199, CDK2-cyclin E complex); assay: NPM phosphorylation imaging assay in MCF-7 cells; format: cell-based; conditions: Homo sapiens, MCF7, 2 hours, 4N DNA cells
Procedure, shortened: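 MCF-7 cells were fixed, permeabilised and immunostained, then imaged for phospho-NPM (Thr199), a CDK2-cyclin E site. Analysis was gated on 4N-DNA cells by Hoechst staining. Signals were normalised to controls and fitted for IC50.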

[5] = test system: POLR2A Ser2 phosphorylation (CDK9); assay: POLR2A Ser2 phosphorylation imaging assay in MCF-7 cells; format: cell-based; conditions: Homo sapiens, MCF7, 2 h, read-out: POLR2A Ser2 phosphorylation IC50
Procedure, shortened: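 MCF-7 cells were fixed, permeabilised and immunostained for POLR2A phospho-Ser2, then imaged by high-content microscopy. Levels were normalised to controls and IC50 values derived.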

[6] = test system: MCF-7 cells; assay: Cellular proliferation EdU assay, MCF-7; format: cell-based; conditions: Homo sapiens, MCF7, 48 h, EdU assay, two days; read-out: MCF-7 IC50
Procedure, shortened: (§2)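 MCF-7 (800 cells/well) and OVCAR3 (1200 cells/well) in RPMI with 10% FBS exposed to compounds for two days at 37 °C.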

[7] = test system: OVCAR3 cells; assay: Cellular proliferation EdU assay, OVCAR3; format: cell-based, human; conditions: Homo sapiens, OVCAR-3, 48 h, EdU assay, two days; read-out: OVCAR3 IC50
Procedure, shortened: as §2

[8] = CLint assessment in human hepatocytes (HH); format: in vitro ADME; design: unit not given here; conditions: pH 7.4
Experimental: Samples were shaken at 800 rpm for 2 minutes and centrifuged at 4000 rpm for 20 minutes at 4° C. to pellet precipitated protein. The supernatant fraction was diluted 1:5 with deionized water, shaken at 1000 rpm for 2 minutes, and further diluted 1:1 with deionized water. Samples were analyzed by LC-MS/MS.

[9] = CLint assessment in human liver microsomes (HLM); format: in vitro ADME; conditions: 1 μM
Procedure, shortened: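 Microsomes preincubated 8 min with NADPH, then compound added and incubated 30 min at 37° C. Remaining compound measured by LC-MS/MS. t1/2 and CLint calculated, with CLint scaled to incubation volume per mg microsomal protein.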

[10] = Aqueous thermodynamic solubility, shake-flask; format: physicochemical; conditions: aqueous phosphate buffer, 25 °C, pH 7.4, aqueous buffer, thermodynamic from solid, phosphate buffer 0.1 M, pH 7.4, 24 hours
Procedure, shortened: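 Dried compound (after DMSO evaporation) was equilibrated in 0.1 M phosphate buffer pH 7.4 with stirring for 24 h at 25° C. Undissolved material was removed by double centrifugation, and the supernatant was diluted in water and quantified by UPLC/MS/MS.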

[11] = test system: OVCAR3 cells; assay: Cell proliferation CyQUANT assay, OVCAR3; format: cell-based; conditions: Homo sapiens, OVCAR-3, 168 h; CyQUANT cell counts, 7 days
Experimental: (§3) An imaging-based assay was used to investigate changes in cell number in OVCAR3 cells (CCNE1-amplified ovarian cancer cell line) and SKOV3 cells (non-amplified ovarian cancer cell line) treated with test compounds.
(§4) Cells were plated in 384 well plates (Perkin-Elmer 6057300) in RPMI-1640/10% FBS/1× L-Glu at 500 cells per well in 30 μL and incubated with test compound at 37° C. and 5% CO2 for 7 days. Cells were then stained using the CyQuant Direct Cell Proliferation Assay Kit (Thermo Cat #C7026) in accordance with the kit protocol. The stained cells were imaged using an Operetta high content imager to generate cell counts and IC50 values were calculated relative to DMSO controls.

[12] = test system: SKOV3 cells; assay: Cell proliferation CyQUANT assay, SKOV3; format: cell-based; conditions: Homo sapiens, SK-OV-3, 168 h; CyQUANT cell counts, 7 days
Experimental: as §3, §4

[13] = test system: OVCAR3 human ovarian cancer xenograft; assay: Anti-tumor effect in CCNE1 amplified ovarian xenograft model OVCAR3; format: in vivo, mice; conditions: for % INHIBITION: 28 days
Experimental: 15 Million OVCAR3 human ovarian cells were implanted subcutaneously in the right flank of female CB17 SCID mice. Mice were randomized into groups of 8 when average tumor volume reached approximately 160 mm^3. […] Palbociclib was dosed orally once daily.

[14] = test system: CTG-3298 human CDK4/6 resistant ER+ breast cancer xenograft; assay: Anti-tumor effect in CTG-3298 CDK4/6 resistant ER+ breast cancer xenograft model; format: in vivo, mice; conditions: for % INHIBITION (end of dosing): 28 days
Experimental: CTG-3298 ER+ breast xenograft tumors were harvested from donor mice and cut into fragments approximately 50 mm^3 in volume and then reimplanted adjacent to the #3 mammary fat pad.
CTG-3298 ER+ Breast PDX fragments were implanted orthotopically adjacent to the #3 mammary fat pad using a 10-gauge trocar in female NSG mice. […] Palbociclib was dosed orally once daily.

[15] = test system: CTG-3283 human CDK4/6 resistant ER+ breast cancer xenograft; assay: Anti-tumor effect in CTG-3283 CDK4/6 resistant ER+ breast cancer xenograft model; format: in vivo, mice; conditions: for % INHIBITION (end of dosing): 28 days
Experimental: CTG-3283 ER+ breast xenograft tumors were harvested from donor mice and cut into fragments approximately 50 mm^3 in volume and then reimplanted adjacent to the #3 mammary fat pad.
CTG-3283 ER+ Breast PDX fragments were implanted orthotopically adjacent to the #3 mammary fat pad using a 10-gauge trocar in female NSG mice. […] Palbociclib was dosed orally once daily.

[16] = test system: OVCAR3 cells; assay: Effect on cell cycle in OVCAR3 cell line (flow cytometry); format: cell-based, human; conditions: 20 to 24 hours, 0.03, 0.1, 0.3, 1, and 3 μM
Experimental: Compounds were tested in the CCNE1-amplified ovarian cell line OVCAR3 to assess their effect on cell cycle phases G1 and S and potential off-target effects on cell cycle phases G2 and M.
OVCAR3 cells were seeded at 60,000 cells per well in 24 well plates, 4 wells per sample, in RPMI with 10% Fetal bovine serum. Test compounds were diluted in 96 well plates in dimethyl sulfoxide (DMSO) and then added to the wells containing the cells. The 24 well plates were placed in an incubator maintained at 37° C. and 5% CO2 and incubated for 20 to 24 hours. The next day an EdU assay was performed following the manufacturer's protocol (Thermo Fisher, C10425 EdU Alexa Fluor 488). Antibody staining was carried out using PE Mouse Anti-Cleaved PARP (BD Biosciences Catalog No. 552933) and 4′,6-diamidino-2-phenylindole (DAPI). Cells were then analyzed by flow cytometry.

[17] = test system: pRB (S780) in OVCAR3 human ovarian cancer xenograft; assay: Pharmacodynamic effect (pRB) in OVCAR3 xenograft model; format: in vivo, mice; conditions: 3 days dosing, Western blot
Experimental: 15 Million OVCAR3 human ovarian cells were implanted subcutaneously in the right flank of female CB17 SCID mice. […] Palbociclib was dosed orally once daily.

[18] = test system: pRB (S780) in MCF7-PC1 human palbociclib resistant ER+ breast cancer xenograft; assay: Pharmacodynamic effect (pRB) in MCF7-PC1 palbociclib resistant ER+ breast cancer xenograft model; format: in vivo, mice; conditions: 3 days dosing, Western blot
Experimental: MCF7-PC1 cells were generated as described in Example 70.
Palbociclib was dosed orally once daily.

[19] = test system: pRB (S780) in CTG-3298 human CDK4/6 resistant ER+ breast cancer xenograft; assay: Pharmacodynamic effect (pRB) in CTG-3298 xenograft model; conditions: 3 days dosing, Western blot
Experimental: A study was conducted to evaluate the in vivo pharmacodynamic response of monotherapy with a CDK2 inhibitor and combination therapy with a CDK2 inhibitor and palbociclib in a CTG-3298 human CDK4/6 resistant ER+ breast cancer xenograft model.
CTG-3298 fragments were implanted adjacent to the #3 mammory fat pad of female NSG mice. […] Mice were treated for 3 days with vehicle (0.5% HPMC/0.1% Tween 80), palbociclib at 50 mg/kg, test compound at 30 or 60 mg/kg, or the combination of test compound and palbociclib. Test compound was dosed orally twice daily 10 hours apart on day one and two and a single dose in the morning on day 3. Palbociclib was dosed orally once daily. When administered in combination with test compound, palbociclib was dosed 4 hours after the morning dose of test compound on days one and two and 15 minutes after the morning dose of test compound on day 3. The time course of sample collection was as follows: (i) the test compound at 30 mg/kg groups with and without palbociclib treatment were collected at 2, 4 and 8 hours; (ii) all other groups were collected at 2, 8, and 24 hours. pRB (S780) was evaluated by western blotting.

[20] = test system: pRB (S780) in CTG-3283 human CDK4/6 resistant ER+ breast cancer xenograft; assay: Pharmacodynamic effect (pRB) in CTG-3283 xenograft model; conditions: 3 days dosing, Western blot
Experimental: A study was conducted to evaluate the in vivo pharmacodynamic response of monotherapy with a CDK2 inhibitor and combination therapy with a CDK2 inhibitor and palbociclib in a CTG-3283 human CDK4/6 resistant ER+ breast cancer xenograft model.
CTG-3283 fragments were implanted adjacent to the #3 mammory fat pad of female NSG mice. […] Mice were treated for 3 days with vehicle (0.5% HPMC/0.1% Tween 80), palbociclib at 50 mg/kg, test compound at 30 or 60 mg/kg, or the combination of test compound and palbociclib. Test compound was dosed orally twice daily 10 hours apart on day one and two and a single dose in the morning on day 3. Palbociclib was dosed orally once daily. When administered in combination with test compound, palbociclib was dosed 4 hours after the morning dose of test compound on days one and two and 15 minutes after the morning dose of test compound on day 3. The time course of sample collection was as follows: (i) the test compound at 30 mg/kg groups with and without palbociclib treatment were collected at 2, 4, and 8 hours; (ii) all other groups were collected at 2, 8, and 24 hours. pRB (S780) was evaluated by western blotting.

[21] = test system: pHH3 in T47D P1 human palbociclib resistant ER+ breast cancer xenograft; assay: Pharmacodynamic effect in T47D P1 palbociclib resistant ER+ breast xenograft model; conditions: 3 days dosing, Western blot
Experimental: A study was conducted to evaluate the in vivo pharmacodynamic response of monotherapy with a CDK2 inhibitor and combination therapy with a CDK2 inhibitor and palbociclib in a T47D P1 human palbociclib resistant ER+ breast cancer xenograft model.
T47D P1 cells were generated to be resistant to palbociclib through chronic treatment with palbociclib over the course of about three months with increasing concentrations up to 3 μM. The resulting cells (T47D P1) were then banked for use in subsequent experiments. T47D P1 cells were grown in phenol red free RPMI 1640 supplemented with 10% fetal bovine serum and 3 μM palbociclib. Cells were harvested with 0.25% trypsin and resuspended in PBS/phenol red free Matrigel (50/50).
10 Million T47D P1 cells were implanted orthotopically into the #3 mammary fat pad of female NSG mice. 0.5 mg 90 day release 17B-estradiol pellets from Innovative Research of America were implanted subcutaneously three days prior to cell implant. […] The time course of sample collection was as follows: (i) the test compound at 30 mg/kg groups with and without palbociclib treatment were collected at 2, 4 and 8 hours; and (ii) all other groups were collected at 2, 8 and 24 hours. pHH3 was evaluated by western blotting.

[22] = Compound 6 at 30 mg/kg orally twice daily
[23] = Compound 6 at 60 mg/kg orally twice daily

`CC[C@H](CO)Nc1nc(N[C@H]2CCN(S(=O)(=O)NC)C2)c2ncn(CC)c2n1` [Example 47, (S)-3-((9-ethyl-2-(((R)-1-hydroxybutan-2-yl)amino)-9H-purin-6-yl)amino)-N-methylpyrrolidine-1-sulfonamide] gave an IC50 [1] of 35 nM, an IC50 [2] of 562 nM and an IC50 [3] of 7400 nM. It also gave an IC50 [4] of 152 nM, an IC50 ([5]; MCF-7 cells, 2 hours) greater than 30000 nM and an IC50 [6] of 705 nM. The IC50 [7] was 185 nM, the microsomal CLint at 1 μM [8] was less than 1 and the “HLM CLint” value [9] was 26 µL/min/mg. The solubility at 24 h [10] was 253 µM (≈ 104 µg/mL).

With `CCNS(=O)(=O)N1CC[C@H](Nc2nc(N[C@@H](CC)[C@@H](C)O)nc3c2ncn3CC)C1` [Compound 6, (S)—N-ethyl-3-((9-ethyl-2-(((2R,3S)-2-hydroxypentan-3-yl)amino)-9H-purin-6-yl)amino)pyrrolidine-1-sulfonamide] the IC50 [5] was greater than 19300 nM, the IC50 [6] was 278 nM and the IC50 [11] was 77 nM. For the same molecule, the IC50 [12] was 1960 nM, the “% INHIBITION” value [13, 22] was 31% and the “% INHIBITION” value ([13]; Compound 6 at 100 mg/kg orally twice daily) was 94%. The “% INHIBITION” value ([13]; Compound 6 at 150 mg/kg orally twice daily) was greater than 100%, the “durability on monitoring for regrowth” value ([13]; Compound 6 at 150 mg/kg, compared to Compound 6 at 100 mg/kg group) was “showed increased durability” and the “% INHIBITION (end of dosing)” value [14, 22] was 82%. The “% INHIBITION (end of dosing)” value [14, 23] was 87%, the durability of response ([14]; Compound 6 at 60 mg/kg without palbociclib) was “more durable response” and the tumor growth inhibition ([15]; CTG-3283 xenograft, Compound 6 at 30 and 60 mg/kg monotherapy or combination with palbociclib) was “lower inhibition of tumor growth”. For the same molecule, the “% INHIBITION (end of dosing)” value [15, 22] was 28%, the “% INHIBITION (end of dosing)” value [15, 23] was 21% and the “effect on cell cycle phase” value [16] was “increased the population of cells in the G0 and G1 phases”. The pRB levels [17] was “time dependent inhibition of pRB”, the pRB levels [18] was “time dependent inhibition of pRB” and the pRB levels [19] was “dose dependent inhibition of pRB”. The pRB levels [20] was “dose dependent inhibition of pRB” and the pHH3 levels [21] was “time dependent inhibition of pHH3”.
